{
  "source": "the NIST ThermoML archive (doi:10.1016/j.jct.2016.05.027)",
  "key": {"[1]": {"settings": "Crystal"}, "[2]": {"experiment": "Molar enthalpy of transition or fusion", "settings": "Crystal; DSC"}},
  "note": "± gives the expanded uncertainty stated by the source.",
  "data": [
    {"smiles": "Cc1cccc([N+](=O)[O-])c1N", "note": "[2-methyl-6-nitroaniline]", "values": [
      {"measurement": "mass density", "setting": "[1]; 298.15 K, 101.33 kPa, flotation method", "result": "1242.4 ± 2.6", "unit": "kg/m3"},
      {"measurement": "Normal melting temperature", "setting": "[1]; DTA", "result": "93.60 ± 1.1", "unit": "°C"},
      {"measurement": "Molar enthalpy of transition or fusion", "setting": "[2]", "result": "5.77 ± 0.225", "unit": "kcal/mol"}
    ]}
  ]
}
